Molecules are shown by their SMILES. The source made the active and inactive calls. No stated cut-off is given here; in the data, actives have a measured IC50 and inactives only a lower limit.

In the assay the target is Envelope glycoprotein gp160 (Human immunodeficiency virus 1, UniProt Q6QLK5). Nature of the assay: cell-free HIV fusion peptide-binding blockers – biochemical, uHTS, fluorescence dequenching, […] (AID 1986).
Chain of Envelope glycoprotein gp160 (Q6QLK5 whole entry, the tested form may be a part): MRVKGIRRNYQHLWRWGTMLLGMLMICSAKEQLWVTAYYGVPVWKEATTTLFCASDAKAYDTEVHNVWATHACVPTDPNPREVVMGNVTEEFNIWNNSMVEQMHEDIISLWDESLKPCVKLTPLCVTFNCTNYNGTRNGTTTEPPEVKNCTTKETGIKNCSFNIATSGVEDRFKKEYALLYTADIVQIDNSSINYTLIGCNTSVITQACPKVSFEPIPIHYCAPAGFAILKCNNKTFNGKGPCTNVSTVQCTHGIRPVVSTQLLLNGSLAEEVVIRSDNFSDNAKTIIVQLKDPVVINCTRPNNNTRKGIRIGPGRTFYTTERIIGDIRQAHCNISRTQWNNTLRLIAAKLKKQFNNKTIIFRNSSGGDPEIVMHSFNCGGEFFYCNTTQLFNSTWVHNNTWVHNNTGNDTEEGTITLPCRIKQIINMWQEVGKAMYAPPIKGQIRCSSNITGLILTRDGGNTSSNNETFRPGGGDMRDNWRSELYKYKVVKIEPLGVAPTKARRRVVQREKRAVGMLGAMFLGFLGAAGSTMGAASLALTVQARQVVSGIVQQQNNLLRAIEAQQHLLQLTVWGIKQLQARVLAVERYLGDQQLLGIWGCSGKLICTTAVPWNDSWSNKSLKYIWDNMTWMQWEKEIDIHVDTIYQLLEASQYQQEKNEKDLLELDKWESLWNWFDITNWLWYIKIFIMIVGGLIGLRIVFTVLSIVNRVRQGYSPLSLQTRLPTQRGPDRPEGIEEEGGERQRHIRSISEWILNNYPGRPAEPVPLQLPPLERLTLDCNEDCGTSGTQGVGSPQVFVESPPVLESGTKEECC
As a reminder, the IC50 is the concentration at which inhibition is half-maximal. In the case of `CCCOc1cccc(C2C(C(=O)c3cc4ccccc4o3)=C(O)C(=O)N2c2cc(C)on2)c1` (centres undefined), the IC50 was 16.9 µM (active).
In the case of `O=C(CCN1C(=O)/C(=C/c2ccco2)SC1=S)Nc1ccc(C(=O)O)c(O)c1`, the IC50 is 14.7 µM (active).
Regarding `O=C(O)CN1C(=O)/C(=C\c2cc(Br)ccc2OCc2ccccc2Cl)SC1=S`, the IC50 was 14.3 µM (active).
Take `O=C(O)CN1C(=O)/C(=C\c2cc(Br)ccc2OCc2ccc(F)cc2)SC1=S`: the IC50 is 10.7 µM (active).

Values taken from ChEMBL document CHEMBL1201862, “PubChem BioAssay data set” (2004).
